Laboratory results: PMC10945739, “Exploring Cassia mimosoïdes as a promising natural source of steroids with potent anti-cancer, urease inhibition, and antimicrobial properties” (RSC Advances, 2024)
Converted amounts (≈) assume the structure as drawn. Where two headings read alike, the source gives them in different places.

Experiments:
[1] = biological target: Jack bean urease (Canavalia ensiformis, UniProt P07374); experiment: biochemical; type: biochemical; conditions: for inhibition at 500 µM: pH 6.8, read-out: % Inhibition of urease
Procedure: The inhibition potential of the isolated compounds against urease was investigated using a SpectraMax M2 reader using 96-well microplates.
The kinetic assay involved preparing varying concentrations of both the test compound and the substrate (urea), spanning 0 μM, 5 μM, 10 μM, 15 μM, and 20 μM. The resulting data was utilized to construct a Lineweaver–Burk plot.
In 96-well plates were incubated at 37 °C for 15 min, reaction mixtures consisting of 25 μL of test compounds (each 0.5 mM), 25 μL of enzyme solution (Jack bean urease) and 55 μL of buffers containing 20.79 mM urea. The indophenol method described by Weatherburn[21] was used to determine urease inhibitor activity by measuring ammonia production. Briefly, to each well were added 70 μL of alkaline reagent (0.5% w/v NaOH and 0.1% active chloride, NaOCl) and 45 μL of phenolic reagent (1% w/v phenol and 0.005% w/v sodium nitroprusside). The microplate reader (Molecular Devices, USA) was used to measure the increase in absorbance at 650 nm after 50 min. A final volume of 245 μL was required to perform all reactions in a triplicate. The results (absorbance change per minute) were processed using SoftMax Pro software (Molecular Devices, USA). All assays were performed at pH 6.8. Inhibition percentages were calculated from the formula% Inhibition = 100 − (Abs(sample)/Abs(control)) × 100where “A” is the absorbance of the “test well” as well as the “control”. Thiourea was used as a standard.

[2] = tested on: human HepG2 hepatic cancer cells; experiment: MTT cell viability assay; type: cell-based; conditions: Homo sapiens; for viability at 200 µg: HepG2, 48 h; for IC50: HepG2, calculated using Graph Pad Prism software, read-out: IC50 against HepG2
Procedure: The human liver cells were cultivated in Dulbecco's modified Eagle medium (DMEM) in which 100 U mL^−1 penicillin, 10% fetal bovine and […] streptomycin were added and kept at 37 °C in a […] carbon dioxide induced humidified environment. The human liver cells prepared as per above procedure were then treated with synthesized compounds diluted to 0.05% DMSO concentration.
Using MTT assay, the % viability of cancer cells 36 was evaluated. According to the standard procedure, HepG2 cells were treated with various dosages of synthesized compounds for 48 hours each. The cells were then incubated for 4 hours at 37 °C with 10μ MTT reagent (5 mg mL^−1). Next, in 150 μL DMSO was added to dissolve formazan crystals. The λmax was recorded at 409 nm in a microplate reader (thermos scientific).

[3] = tested on: Alternaria alternata; experiment: Antifungal bioassay, poisoned medium technique; type: cell-based; conditions: 168 h, read-out: MIC values against Alternaria alternata
Procedure: (§1) Anti-microbial assays of the isolated componds were performed against the selected strain of fungi i.e., Alternaria alternata, Aspergillus fumigatus, Aspergillus niger, and Penicillium citrii.
(§2) Alternaria alternata, Aspergillus fumigatus, Aspergillus niger, and Penicillium citrii strains were obtained from the Biotechnology lab at COMSATS University Islamabad. The antifungal activity of isolated compounds was assessed using poisoned medium technique. Two percent malt extract agar medium was generated by autoclaving at 121 °C for 30 minutes. Weighed volumes of the compounds were dissolved in […] of sterilized distilled water and put to flasks containing 59.5 mL of malt extract agar medium while they were still molten to obtain final concentrations of 100, 300, 500, 700, 900, and 1000 ppm. The control received the same amount of distilled water. Each sterile Petri plate with a diameter of 90 mm was filled with 20 mL of each medium and allowed to solidify. 5 mm diameter mycelial discs were produced from the tips of 5–7 day-old cultures of the four test fungus species and put in the center of each Petri dish using a sterile cork borer. Every treatment was duplicated three times. Plates were cultured in an incubator at 25 ± 2 °C for seven days. To calculate the rate of fungal growth, the three diameters of each colony were measured at right angles and averaged. Table 2 MIC values (μM) of the isolated compounds against Alternaria alternata, Aspergillus fumigatus, Aspergillus niger, and Penicillium citrii strains.[19]

[4] = tested on: Aspergillus fumigatus; experiment: Antifungal bioassay, poisoned medium technique; type: cell-based; conditions: 168 h, read-out: MIC values against Aspergillus fumigatus
Procedure: as §1, §2

[5] = tested on: Aspergillus niger; experiment: Antifungal bioassay, poisoned medium technique; type: cell-based; conditions: 168 h, read-out: MIC values against Aspergillus niger
Procedure: as §1, §2

[6] = tested on: Penicillium citrii; experiment: Antifungal bioassay, poisoned medium technique; type: cell-based; conditions: 168 h, read-out: MIC values against Penicillium citrii
Procedure: as §1, §2

[7] = HepG2, MTT, 48 hours, at 200 μg
[8] = poisoned medium, 25 ± 2 °C, seven days

Sequence of Jack bean urease (P07374 whole entry, looked up): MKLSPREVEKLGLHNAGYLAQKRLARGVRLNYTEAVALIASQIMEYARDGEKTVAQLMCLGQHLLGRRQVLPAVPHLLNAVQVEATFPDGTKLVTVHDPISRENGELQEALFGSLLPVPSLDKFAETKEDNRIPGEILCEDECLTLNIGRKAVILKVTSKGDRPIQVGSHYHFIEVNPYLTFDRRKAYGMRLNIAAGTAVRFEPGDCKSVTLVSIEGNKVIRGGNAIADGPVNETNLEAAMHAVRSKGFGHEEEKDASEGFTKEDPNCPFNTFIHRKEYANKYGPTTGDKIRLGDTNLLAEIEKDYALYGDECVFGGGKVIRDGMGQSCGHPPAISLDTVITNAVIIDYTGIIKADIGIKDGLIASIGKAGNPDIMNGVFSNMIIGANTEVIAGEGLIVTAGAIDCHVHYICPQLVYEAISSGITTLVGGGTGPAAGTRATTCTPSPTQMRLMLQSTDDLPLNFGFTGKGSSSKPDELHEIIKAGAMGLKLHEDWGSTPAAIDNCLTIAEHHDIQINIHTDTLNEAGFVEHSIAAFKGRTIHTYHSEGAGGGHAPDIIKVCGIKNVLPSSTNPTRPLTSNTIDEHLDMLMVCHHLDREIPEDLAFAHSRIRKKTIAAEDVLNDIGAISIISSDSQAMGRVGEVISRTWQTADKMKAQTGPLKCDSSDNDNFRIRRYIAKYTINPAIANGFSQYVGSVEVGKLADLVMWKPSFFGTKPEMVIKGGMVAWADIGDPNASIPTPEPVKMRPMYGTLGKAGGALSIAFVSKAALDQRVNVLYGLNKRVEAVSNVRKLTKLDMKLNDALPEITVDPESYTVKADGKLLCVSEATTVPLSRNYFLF

Structure (SMILES)	IC50 [1] [µM]	inhibition at 500 µM [1] [%]	MIC [3, 8] [µM]	MIC [4, 8] [µM]	MIC [5, 8] [µM]	MIC [6, 8] [µM]	other results
O=c1cc(-c2ccc(O)c(O)c2)oc2c([C@@H]3O[C@H](CO)[C@@H](O)[C@H](O)[C@H]3O)c(O)cc(O)c12 [Compound 6, Luteolin-8-C-β-D-glucopyranoside]	5.03 ± 0.12	71.5					viability at 200 µg [2, 7]: 89.2 ± 2.5%
CCC(CCC(C)C1CCC2C3CC(=O)C4=CC(=O)CCC4(C)C3CCC12C)C(C)C (centres unmarked) [Stigmast-4-en-3,6-dione]			0.15 ± 0.005 (≈ 64 ng/mL)	0.125 ± 0.0015 (≈ 53.3 ng/mL)	0.02 ± 0.006 (≈ 8.53 ng/mL)	0.04 ± 0.003 (≈ 17.1 ng/mL)	
COc1cc(O)cc2oc(-c3ccc(O)c(O)c3)cc(=O)c12 [Compound 4, Luteolin-5-methyl ether]	3.87 ± 0.24	82.7					viability at 200 µg [2, 7]: 90.5 ± 2.15%
Cc1cc(O)c2c(c1)C(=O)c1cc(O)cc(O)c1C2=O [Emodin]			0.01 ± 0.006 (≈ 2.7 ng/mL)	0.035 ± 0.005 (≈ 9.46 ng/mL)	0.04 ± 0.003 (≈ 10.8 ng/mL)	0.045 ± 0.005 (≈ 12.2 ng/mL)	
O=c1cc(-c2ccc(O)cc2)oc2c([C@@H]3O[C@H](CO)[C@@H](O)[C@H](O)[C@H]3O)c(O)cc(O)c12 [Compound 5, Apigenin-8-C-β-D-glucopyranoside]	4.73 ± 0.22	77.5					viability at 200 µg [2]: 94.7 ± 7.4%
Cc1cc(O)c2c(c1)C(=O)c1cc(O)cc(O)c1C2=O [Compound 11, Emodin]	5.2 ± 0.14	72.9					viability at 200 µg [2, 7]: 83.89 ± 0.73%
CCCCCCCCCCCCCCCCCCC(=O)O [Compound 14, Nonadecanoic acid]	1.95 ± 0.31	80.4					
Cc1cc(O)c2c(c1)C(=O)c1cccc(O)c1C2=O [Compound 12, Chrysophanol]	5.92 ± 0.25	78.2					viability at 200 µg [2, 7]: 59.3 ± 2.2%
O=c1cc(-c2ccc(O)c(O)c2)oc2cc(O)cc(O)c12 [Compound 2, Luteolin]	1.3 ± 0.28	82	0.043 ± 0.002 (≈ 12.3 ng/mL)	0.01 ± 0.004 (≈ 2.86 ng/mL)	0.021 ± 0.001 (≈ 6.01 ng/mL)	0.05 ± 0.002 (≈ 14.3 ng/mL)	viability at 200 µg [2, 7]: 82.5 ± 4.31%
CC[C@H](CC[C@@H](C)[C@H]1CC[C@H]2[C@@H]3CC=C4C[C@@H](O)CC[C@]4(C)[C@H]3CC[C@]12C)C(C)C [Compound 15, β-Sitosterol]	2.78 ± 0.24	80					viability at 200 µg [2]: 94.4 ± 4.42%
O=c1cc(-c2ccc(O)c(O)c2)oc2cc(O)ccc12 [Compound 3, 3′,4′,7-Trihydroxyflavone]			0.056 ± 0.001 (≈ 15.1 ng/mL)	0.013 ± 0.003 (≈ 3.51 ng/mL)	0.032 ± 0.005 (≈ 8.65 ng/mL)	0.016 ± 0.01 (≈ 4.32 ng/mL)	
O=c1cc(-c2ccc(O)c(O)c2)oc2c([C@@H]3O[C@H](CO)[C@@H](O)[C@H](O)[C@H]3O)c(O)cc(O)c12 [Luteolin-8-C-β-D-glucopyranoside]							MIC [3]: 0.021 ± 0.005 µM (≈ 9.42 ng/mL); MIC [4]: 0.014 ± 0.005 µM (≈ 6.28 ng/mL); MIC [5]: 0.013 ± 0.006 µM (≈ 5.83 ng/mL); MIC [6]: 0.015 ± 0.008 µM (≈ 6.73 ng/mL)
CCC(CCC(C)C1CCC2C3CC(O)C4=CC(=O)CCC4(C)C3CCC12C)C(C)C (centres unmarked) [Synthesized compound]		69					IC50 ([1]; read-out: IC50 ± SEM, urease, pH 6.8): 8.03 ± 0.19 µM
O=c1cc(-c2ccc(O)cc2)oc2c([C@@H]3O[C@H](CO)[C@@H](O)[C@H](O)[C@H]3O)c(O)cc(O)c12 [Apigenin-8-C-β-D-glucopyranoside]							MIC [3]: 0.025 ± 0.007 µM (≈ 10.8 ng/mL); MIC [4]: 0.01 ± 0.006 µM (≈ 4.32 ng/mL); MIC [5]: 0.015 ± 0.001 µM (≈ 6.49 ng/mL); MIC [6]: 0.01 ± 0.006 µM (≈ 4.32 ng/mL)
CC[C@H](CC[C@@H](C)[C@H]1CC[C@H]2[C@@H]3C[C@H](O)C4=C[C@@H](O)CC[C@]4(C)[C@H]3CC[C@]12C)C(C)C [Compound 10, Stigmast-4-en-3β,6α-diol]	6.68 ± 0.11	76.6					viability at 200 µg [2, 7]: 14.5 ± 0.68%; IC50 [2]: 7.8 µM
Cc1cc(O)c2c(c1)C(=O)c1cccc(O)c1C2=O [Chrysophanol]			0.012 ± 0.003 (≈ 3.05 ng/mL)	0.06 ± 0.001 (≈ 15.3 ng/mL)	0.03 ± 0.002 (≈ 7.63 ng/mL)	0.05 ± 0.001 (≈ 12.7 ng/mL)	
CC[C@H](CC[C@@H](C)[C@H]1CC[C@H]2[C@@H]3C[C@H](O)C4=C[C@@H](O)CC[C@]4(C)[C@H]3CC[C@]12C)C(C)C [Stigmast-4-en-3β,6α-diol]			0.045 ± 0.003 (≈ 19.4 ng/mL)	0.01 ± 0.006 (≈ 4.31 ng/mL)	0.015 ± 0.005 (≈ 6.46 ng/mL)	0.2 ± 0.03 (≈ 86.1 ng/mL)	
NC(N)=S [thiourea, reference compound]							IC50 ([1]; pH 6.8, read-out: IC50 ± SEM, urease): 18.61 ± 0.11 µM; IC50 ([1]; read-out: IC50, urease (conclusions)): 18.61 ± 0.11 µM; % Inhibition of urease ([1]; test compounds each 0.5 mM, pH 6.8): 86.73%
O=c1cc(-c2ccc(O)c(O)c2)oc2cc(O)c([C@@H]3O[C@H](CO)[C@@H](O)[C@H](O)[C@H]3O)c(O)c12 [Luteolin-6-C-β-D-glucopyranoside]			0.06 ± 0.007 (≈ 26.9 ng/mL)	0.25 ± 0.003 (≈ 112 ng/mL)	0.0072 ± 0.0003 (≈ 3.23 ng/mL)	0.022 ± 0.003 (≈ 9.86 ng/mL)	
COc1cc(O)c2c(c1)C(=O)c1cc(C)cc(O)c1C2=O [Physcion]			0.015 ± 0.005 (≈ 4.26 ng/mL)	0.035 ± 0.006 (≈ 9.95 ng/mL)	0.09 ± 0.009 (≈ 25.6 ng/mL)	0.03 ± 0.005 (≈ 8.53 ng/mL)	
CC[C@H](CC[C@@H](C)[C@H]1CC[C@H]2[C@@H]3CC(=O)C4=CC(=O)CC[C@]4(C)[C@H]3CC[C@]12C)C(C)C [Compound 9, Stigmast-4-en-3,6-dione]		13.4					IC50 [2]: 7.8 µM
CC[C@H](CC[C@@H](C)C1CCC2C3CC=C4C[C@@H](O[C@@H]5O[C@H](CO)[C@@H](O)[C@H](O)[C@H]5O)CC[C@]4(C)C3CC[C@@]21C)C(C)C (stereo partly drawn) [Compound 16, β-Sitosterol 3-O-β-D-glucopyranoside]		19.5					viability at 200 µg [2, 7]: 96.4 ± 2.2%
COc1cc(O)c2c(c1)C(=O)c1cc(C)cc(O)c1C2=O [Compound 13, Physcion]	6.24 ± 0.3	63.5					viability at 200 µg [2]: 87.4 ± 2.55%
COc1cc(O)cc2oc(-c3ccc(O)c(O)c3)cc(=O)c12 [Luteolin-5-methyl ether]			0.03 ± 0.006 (≈ 9.01 ng/mL)	0.04 ± 0.002 (≈ 12 ng/mL)	0.01 ± 0.006 (≈ 3 ng/mL)	0.06 ± 0.004 (≈ 18 ng/mL)	
